Source: article PMC6099706, “Anti-Mycobacterium tuberculosis Activity of Esters of Quinoxaline 1,4-Di-N-Oxide” (Molecules : A Journal of Synthetic Chemistry and Natural …, 2018)
≈ marks a conversion by molar mass, not a printed value.

Columns and labels:
[1] = tested on: M. fortuitum; assay: MIC on nontuberculous Mycobacterium clinical isolate; assay type: cell-based; conditions: Mycolicibacterium fortuitum
[2] = tested on: M. chelonae; assay: as above; assay type: cell-based; conditions: Mycobacteroides chelonae
[3] = tested on: Mycobacterium tuberculosis strain H37Rv; assay: microplate Alamar blue assay (MABA); assay type: cell-based; conditions: Mycobacterium tuberculosis, H37RV, M. tuberculosis H37Rv; lowest concentration effecting 90% inhibition
[4] = tested on: M. tb H37Rv; assay: MIC on M. tb H37Rv (Table 4 panel); assay type: cell-based; conditions: Mycobacterium tuberculosis
[5] = tested on: M. smegmatis; assay: MIC on nontuberculous Mycobacterium clinical isolate; assay type: cell-based; conditions: Mycolicibacterium smegmatis
[6] = tested on: M. abscessus; assay: as above; assay type: cell-based; conditions: Mycobacteroides abscessus
[7] = cytotoxicity on macrophages (Alamar blue) and selectivity index; assay type: cell-based, mouse; conditions: mouse, J774A.1 macrophage cells; for CC50 at 6 h: cytotoxicity on macrophage cell J774A.1 at 6 h; for CC50 at 96 h: cytotoxicity on macrophage cell J774A.1 at 96 h
Protocol: (§1) The determination of the half maximal cytotoxicity concentration (CC50) of the compounds T-006, T-011, T-018, T-022, T-069, T-085, T-088, and T-089 was carried out on the mouse macrophage cell line J774A.1 (ATCC TIB-67). Briefly, cell monolayers were prepared in 96-well plates with 10,000 cells per well in Ham’s F-12 medium supplemented with 10% Fetal bovine serum (FBS, By products, Guadalajara, Mexico) and antibiotics (penicillin and gentamicin). Five concentrations from 100 to 0.5 μg/mL of each of the compounds were tested. The cells were incubated for a period of 6 h (^−) or 96 h (^+). Before completing this period, 20 μL of Alamar blue solution was added to each well, quantifying the relative fluorescence units in a fluorometer (Fluoroskan Ascent FL, Labsystems). The percentage of cytotoxicity at each concentration was determined by comparing the values against the control of cells without treatment. The CC50 was determined with the Probit regression analysis (MedCalc Statistical Software version 18.5, Ostend, Belgium). Selectivity index was calculated as the ratio of the CC50 on the macrophage cell line J774A.1 and the MIC value against M. tuberculosis strain H37Rv.

[8] = tested on: mouse macrophage cell line J774A.1; assay: as above; assay type: cell-based; conditions: ratio of CC50 on J774A.1 and MIC against M. tuberculosis H37Rv
Protocol: as §1

[9] = tested on: nonreplicating persistent (NRP) M. tuberculosis strain; assay: microbe, parasite or virus in culture; assay type: cell-based, Mycobacterium tuberculosis; conditions: Mycobacterium tuberculosis; nonreplicating persistent strain; read-out: LORA MIC
[10] = tested on: M. avium; assay: MIC on nontuberculous Mycobacterium clinical isolate; assay type: cell-based
[11] = biological target: M. tuberculosis gyrase (GyrA and Gyr B subunits) (Mycobacterium tuberculosis, UniProt P9WG45+P9WG47); assay: M. tuberculosis gyrase supercoiling assay; assay type: biochemical; conditions: at 50 μM
Protocol: The activity of the enzyme was determined prior to the testing of the quinoxaline 1,4-di-N-oxide derivatives and 1 U was defined as the amount of enzyme required to just fully supercoil the substrate under test conditions. Compounds were tested at 50 μM. Final DMSO concentration in the assays was 1% (v/v).
1 U of M. tuberculosis gyrase (GyrA and Gyr B subunits) (final concentration in assay 50 nM) was incubated with 0.5 μg of relaxed pBR322 DNA in a 30 μL reaction at 37 °C for 30 min under the following conditions: 50 mM HEPES. KOH (pH 7.9), 6 mM magnesium acetate, 4 mM DTT, 1 mM ATP, 100 mM potassium glutamate, 2 mM spermidine and 0.05 mg/mL albumin.
Each reaction was stopped by the addition of 30 μL chloroform/iso-amyl alcohol (26:1) and 20 μL Stop Dye (40% sucrose, 100 mM Tris.HCl (pH 7.5), 10 mM EDTA, 0.5 μg/mL bromophenol blue), before being loaded on a 1.0% TAE (Tris.acetate […], EDTA […]) gel run at 80 V for 2 h.
Bands were visualized by ethidium staining for 10 min, destained for 10 min in water, analyzed by gel documentation equipment (Syngene, Cambridge, UK), and quantified using Syngene software (Genetools version 4.00 (1997–1998), Syngene, A division of Synoptics Corp, Cambridge, UK).
Raw gel data (fluorescent band volumes) collected from Syngene’s GeneTools gel analysis software were converted to a % of the 100% control (the supercoiled enzyme plus DMSO control DNA band). These were analyzed using SigmaPlot Version 13.0 (Systat Software Inc., London, UK; 2016).

[12] = stability in human plasma by UPLC-MS; assay type: in vitro ADME; conditions: 37 °C, 24 h
Protocol: Compounds T-018 and T-069 were selected to analyze their stability in human plasma. A total of 1 mg of each of the two compounds was dissolved in 1 mL of dichlorometane. Then, 0.1 mL was added to 0.9 mL of 0.1% formic acid in acetonitrile for analysis by UPLC with an ACQUITY QDa mass detector from Waters (Milford, MA, USA) under the following conditions: column: ACQUITY UPLC® BEH C18 1.7 µm, 2.1 × 100 mm; mobile phase: 0.1% formic acid/acetonitrile; run time: 5 min; flow rate: 0.3 mL/min; injection volume: 0.5 µL; temperature: 40 °C. After that, 3 mL of human plasma was obtained from a volunteer under medical supervision and following the standard procedures. Then, 1 mg of T-018 and T-069 were dissolved with DMSO 2% and added to 1 mL of human plasma. Samples were incubated at 37 °C for 12 and 24 h. T-018 and T-069 were obtained by liquid extraction with dichloromethane (10 mL) three times and the solvent was eliminated for vacuum pressure. After that, 1 mL of dichlorometane was added and 0.1 mL was added to 0.9 mL of 0.1% formic acid in acetonitrile and analyzed by UPLC-MS. Percentage of degradation was calculated considering the area under the curve of each peak/the area under the curve of all peaks × 100% at 24 h only.

M. tuberculosis gyrase (GyrA and Gyr B subunits), sequence (P9WG45 whole entry): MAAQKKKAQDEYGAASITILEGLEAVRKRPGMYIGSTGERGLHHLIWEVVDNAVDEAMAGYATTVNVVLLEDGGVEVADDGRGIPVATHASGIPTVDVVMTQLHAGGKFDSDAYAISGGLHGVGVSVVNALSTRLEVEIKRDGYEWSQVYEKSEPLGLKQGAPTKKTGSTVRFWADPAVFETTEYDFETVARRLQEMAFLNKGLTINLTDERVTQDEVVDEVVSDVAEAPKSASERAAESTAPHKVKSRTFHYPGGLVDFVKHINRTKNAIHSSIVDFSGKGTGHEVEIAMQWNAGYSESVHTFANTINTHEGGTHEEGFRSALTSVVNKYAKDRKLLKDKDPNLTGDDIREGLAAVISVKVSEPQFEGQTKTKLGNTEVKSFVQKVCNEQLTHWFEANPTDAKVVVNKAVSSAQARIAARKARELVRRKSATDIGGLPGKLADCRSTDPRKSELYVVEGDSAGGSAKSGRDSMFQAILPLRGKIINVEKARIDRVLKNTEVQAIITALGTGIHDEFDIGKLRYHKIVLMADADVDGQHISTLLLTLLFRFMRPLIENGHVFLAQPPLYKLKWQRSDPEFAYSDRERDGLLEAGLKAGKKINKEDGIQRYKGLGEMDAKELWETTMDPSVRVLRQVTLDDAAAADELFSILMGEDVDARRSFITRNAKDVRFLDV
M. tuberculosis gyrase (GyrA and Gyr B subunits), sequence (P9WG47 whole entry): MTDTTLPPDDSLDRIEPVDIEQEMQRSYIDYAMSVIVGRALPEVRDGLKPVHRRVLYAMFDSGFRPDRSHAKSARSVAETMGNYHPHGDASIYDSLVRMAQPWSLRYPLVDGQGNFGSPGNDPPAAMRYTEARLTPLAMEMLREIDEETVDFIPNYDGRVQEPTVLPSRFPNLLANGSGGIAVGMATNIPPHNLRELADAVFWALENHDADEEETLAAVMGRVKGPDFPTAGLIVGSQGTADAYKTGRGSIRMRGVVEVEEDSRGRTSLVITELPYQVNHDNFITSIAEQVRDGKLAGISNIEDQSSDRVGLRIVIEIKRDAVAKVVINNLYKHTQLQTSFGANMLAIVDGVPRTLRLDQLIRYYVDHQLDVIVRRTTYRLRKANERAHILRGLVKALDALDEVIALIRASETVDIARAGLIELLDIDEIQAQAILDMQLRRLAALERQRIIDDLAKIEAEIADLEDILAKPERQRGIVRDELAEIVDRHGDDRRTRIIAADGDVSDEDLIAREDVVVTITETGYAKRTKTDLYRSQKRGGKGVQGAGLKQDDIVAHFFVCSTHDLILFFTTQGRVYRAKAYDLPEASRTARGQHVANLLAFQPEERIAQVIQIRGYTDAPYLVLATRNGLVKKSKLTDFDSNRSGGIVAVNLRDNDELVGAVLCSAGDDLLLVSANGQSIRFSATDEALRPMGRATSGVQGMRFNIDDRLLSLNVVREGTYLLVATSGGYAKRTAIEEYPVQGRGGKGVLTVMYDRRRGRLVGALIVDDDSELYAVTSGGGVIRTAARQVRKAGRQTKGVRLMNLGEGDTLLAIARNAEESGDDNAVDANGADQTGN

SMILES	MIC [1] [µg/mL]	MIC [2] [µg/mL]	MIC [3] [µg/mL]	MIC [4] [µg/mL]	MIC [5] [µg/mL]	MIC [6] [µg/mL]	CC50 at 6 h [7] [µg/mL]	SI (selectivity index) [8]	MIC [9] [µg/mL]	MIC [10] [µg/mL]	inhibitory effect on M. tuberculosis gyrase supercoiling [11]	CC50 at 96 h [7] [µg/mL]	stability in human plasma [12]
CC(C)OC(=O)c1ccc2c(c1)[n+]([O-])c(C(=O)C(C)C)c(C(F)(F)F)[n+]2[O-] [Compound T-085]	2.5 (≈ 6.47 µM)	5 (≈ 12.9 µM)	≤ 0.15	1 (≈ 2.59 µM)	1.25 (≈ 3.24 µM)	2.5 (≈ 6.47 µM)	45.4 (≈ 118 µM)	45.42	0.13 (≈ 0.337 µM)	0.62 (≈ 1.6 µM)			
CCOC(=O)c1ccc2c(c1)[n+]([O-])c(C(=O)c1cccs1)c(C(F)(F)F)[n+]2[O-] [Compound T-011]	2.5 (≈ 6.06 µM)	> 10	≤ 0.15	0.5 (≈ 1.21 µM)	0.62 (≈ 1.5 µM)	> 10	1.67 (≈ 4.05 µM)	3.34	0.21 (≈ 0.509 µM)	< 0.31	none of the compounds showed an inhibitory effect		
COC(=O)c1ccc2c(c1)[n+]([O-])c(C(=O)c1ccccc1)c(C(F)(F)F)[n+]2[O-] [Compound T-018]	> 10	> 10	≤ 0.15	1 (≈ 2.55 µM)	2.5 (≈ 6.37 µM)	5 (≈ 12.7 µM)	35.4 (≈ 90.2 µM)	35.37	0.34 (≈ 0.867 µM)	2.5 (≈ 6.37 µM)	none of the compounds showed an inhibitory effect		
COC(=O)c1ccc2c(c1)[n+]([O-])c(C(=O)OC)c(C)[n+]2[O-] [Compound T-022]	2.5 (≈ 8.55 µM)	2.5 (≈ 8.55 µM)	0.29 (≈ 0.992 µM)	0.5 (≈ 1.71 µM)	0.62 (≈ 2.12 µM)	> 10			0.56 (≈ 1.92 µM)	2.5 (≈ 8.55 µM)		86.2 (≈ 295 µM)	
CCCOC(=O)c1ccc2c(c1)[n+]([O-])c(C(=O)c1cccs1)c(C(F)(F)F)[n+]2[O-] [Compound T-089]	> 10	> 10	0.12 (≈ 0.281 µM)	0.5 (≈ 1.17 µM)	> 10	> 10	24.3 (≈ 56.9 µM)	48.54	0.15 (≈ 0.352 µM)	0.62 (≈ 1.45 µM)			
CC(C)OC(=O)c1ccc2c(c1)[n+]([O-])c(C(=O)c1cccs1)c(C(F)(F)F)[n+]2[O-] [Compound T-069]	> 10	2.5 (≈ 5.86 µM)	≤ 0.15	1 (≈ 2.35 µM)	> 10	> 10	41.3 (≈ 96.8 µM)	41.26	0.23 (≈ 0.539 µM)	5 (≈ 11.7 µM)	none of the compounds showed an inhibitory effect		high stability
CCCOC(=O)c1ccc2c(c1)[n+]([O-])c(C(=O)OC)c(C)[n+]2[O-] [Compound T-088]	> 10	> 10	≤ 0.15	0.5 (≈ 1.56 µM)	2.5 (≈ 7.81 µM)	> 10		73.02	0.27 (≈ 0.843 µM)	> 10		36.5 (≈ 114 µM)	
CCOC(=O)c1ccc2c(c1)[n+]([O-])c(C(C)=O)c(C(F)(F)F)[n+]2[O-] [Compound T-006]	> 10	> 10	0.29 (≈ 0.842 µM)	2 (≈ 5.81 µM)	> 10	> 10		>50	0.42 (≈ 1.22 µM)	2.5 (≈ 7.26 µM)		> 100	
